This series is described as follows: Human HepG2 cell viability assay in 384 well format. It is filed as toxicity, cell-based. Set-up: dose 125 nL, time 70.5 hour; concentration not given beside the values. To be noted: HepG2 cells, read-out: Inhibition.

For 94 compounds, cytotoxicity results are on record in ChEMBL document CHEMBL3507680, “University of Dundee, Gates Library screen for HepG2 cell viability”.

Regarding `O=C1CCC(=O)c2oc3ccccc3c2N1`, the cytotoxicity at 70.5 h is -5.85%. `NC(=O)c1nc(-c2cccc(Cl)c2)oc1N`: the cytotoxicity at 70.5 h was -14.1%. The figure for `O=C(c1nc2c(s1)CCCN2C(=O)C1CC1)N1CCCC1` is -3.91%. The figure for `c1ccc(CNCC2Cn3nncc3CO2)nc1` (centres undefined) is -7.76%; for `O=C(NC1CCC1)[C@H]1C[C@@H]2CN(C(=O)Nc3ccc(F)cc3)C[C@H]1O2` it is -5.31%. The figure for `Cc1cccc(COC2COC3(CCN(Cc4ccoc4)CC3)C2)n1` (centres undefined) is -16.1%.

`CC(C)NC(=O)N1CCN(S(C)(=O)=O)CC2(CNC(=O)C2)C1` (centres undefined): the cytotoxicity at 70.5 h was -17.9%. The figure for `O=C(c1cnccn1)N1CCn2cnc(COCC3CC3)c2C1` is 14.8%. Regarding `CS(=O)(=O)NC[C@]12COC[C@H]1CN(C(=O)c1ccncn1)C2`, the cytotoxicity at 70.5 h is 15.5%. `CS(=O)(=O)NC[C@]12COC[C@H]1CN(C(=O)c1cnccn1)C2`: the cytotoxicity at 70.5 h was 19.5%. The figure for `O=C(NCC1CC1)C1CN(C(=O)c2cnccn2)CC12CCOCC2` (centres undefined) is -2.91%; for `COc1ccc(N2CCCC3(C2)CN(c2nncs2)CCO3)cc1` (centres undefined) it is 1.09%; for `Cc1ccoc1C(=O)N1C[C@@H]2COC[C@]2(CNS(C)(=O)=O)C1` it is -3.33%. The figure for `CN(Cc1cn2c(n1)CN(C(=O)c1cccnc1)CC2)Cc1ccco1` is -2.78%; for `Cn1cc(C2CC3(CCN(C(=O)c4cccs4)CC3)NC2=O)cn1` (centres undefined) it is 1.02%; for `O=C1NC2(CCN(C(=O)Cc3ccsc3)CC2)CC1c1ccccc1` (centres undefined) it is 0.488%. As for `CN(Cc1cn2c(n1)CN(C(=O)c1cccn1C)CC2)Cc1ccco1`, the cytotoxicity at 70.5 h is 9.36%.

Turning to `Cc1cccc(C(=O)N2CCn3cnc(COCC4CC4)c3C2)c1`, the cytotoxicity at 70.5 h is -5.71%. `CN(Cc1cn2c(n1)CN(C(=O)C1CCCO1)CC2)Cc1ccco1` (centres undefined): the cytotoxicity at 70.5 h is -3.64%. The figure for `Cc1ncsc1CN1CC[C@H]2OCC[C@@]2(C(=O)N2CCCC2)C1` is -1.98%; for `Cc1cccc(C(=O)N2CCn3cnc(COCC4CC4)c3C2)n1` it is -2.97%. As to `CCOCC(=O)N1CCn2cc(CN(C)Cc3ccco3)nc2C1`, the cytotoxicity at 70.5 h was -0.359%.

For `O=C(NCC1CC1)C1CN(C(=O)c2ccco2)CC12CCOCC2` (centres undefined), the cytotoxicity at 70.5 h was -1.19%. For `Cc1occc1C(=O)N1CC(C(=O)N2CCOCC2)C2(CCOCC2)C1` (centres undefined), the cytotoxicity at 70.5 h was 6.2%. For `Cc1ccc(CN2CCC3(CC2)CC(NC(=O)c2ccccn2)CO3)o1` (centres undefined), the cytotoxicity at 70.5 h is -2.22%.

In the case of `Cc1csc([C@H]2C[C@@H]3CCN(C(=O)c4ccnnc4)C[C@H]3O2)n1`, the cytotoxicity at 70.5 h was -1.58%. The figure for `O=C(c1ccccc1)N1CC(C(=O)N2CCOCC2)C2(CCOCC2)C1` (centres undefined) is 7.01%. The figure for `CN1CC(=O)N(c2cccc(F)c2)CC12CCN(Cc1ccco1)C2` (centres undefined) is -5.08%; for `CN1CC(=O)N(c2cccc(F)c2)CC12CCN(Cc1ccccn1)C2` (centres undefined) it is -1.03%. The figure for `CCC1=N[C@@]2(CC[C@@H]3CN(S(=O)(=O)CC(C)C)C[C@@H]32)C(=O)N1CC1CC1` is 0.026%; for `COCC1CN(C(=O)N2CCCC2)Cc2cnn(CC3CCCC3)c21` (centres undefined) it is -1.96%. On to `Cn1ncc2c1C(COCC1CC1)CN(C(=O)Cc1ccsc1)C2` (centres undefined), for which the cytotoxicity at 70.5 h is -2.83%.

For `CN(C)CC(=O)N1C[C@@H](Oc2ccccn2)[C@H]2OCCC[C@H]21`, the cytotoxicity at 70.5 h stood at 9.63%.

Turning to `O=C(Cc1ccsc1)N1CCn2cc(Cn3cncn3)nc2C1`, the cytotoxicity at 70.5 h worked out at 2.98%.

On to `O=C(Cc1ccsc1)N1C[C@@H]2C[C@@H](c3nnc(C4CC4)o3)O[C@@H]2C1`, for which the cytotoxicity at 70.5 h was 4.61%. `Cn1nccc1C(=O)N1CCCC2(CCN(c3ccsc3)C2=O)C1` (centres undefined): the cytotoxicity at 70.5 h turned out to be 10.3%. Turning to `Cc1nccc([C@@H]2C[C@@H]3CCN(Cc4cccs4)C[C@H]3O2)n1`, the cytotoxicity at 70.5 h was found to be 4.44%.

For the compound `CNc1nnc(CCn2nc(C)c(Br)c2C)s1`, the cytotoxicity at 70.5 h worked out at 19.6%. The figure for `O=C(Cn1nc(C(F)(F)F)c(Cl)c1C1CC1)NN1CCOCC1` is 12.9%. The figure for `CN(Cc1cnn(C)c1)C(=O)c1cc(C(F)(F)F)n(C)n1` is -15.3%; for `Cc1nnc(NC(=O)C(C)n2ncc(Br)c2C)s1` (centres undefined) it is 24.3%. The figure for `Cn1cc(Br)c(C(=O)NCCCn2cc(Cl)cn2)n1` is 0.918%; for `Cc1nc(NC(=O)C(C)n2ncc(Br)c2C)sc1C` (centres undefined) it is 1.11%; for `Cc1nn(CCC(=O)N2CCN(Cc3cnn(C)c3C)CC2)c(C)c1Br` it is 1.42%. For `CCn1cc(NC(=O)c2c(C)nn(C)c2C)c(C(N)=O)n1`, the cytotoxicity at 70.5 h was determined as 19%. Regarding `CCn1ncc(CN(C)C(=O)c2cc(C(F)(F)F)n(C)n2)c1C`, the cytotoxicity at 70.5 h is -17.2%.

As for `CNC(=O)c1nn(C)cc1NC(=O)C(C)n1ncc(Cl)c1C` (centres undefined), the cytotoxicity at 70.5 h is -6.57%. The figure for `CCn1ncc(Cl)c1CN(C)C(=O)CCn1ncc(Br)c1C` is -18%; for `CCn1cc(S(=O)(=O)NC2CCCC2)cn1` it is -11.8%; for `COc1ccc(OC)c(C(C)NS(=O)(=O)c2cnn(C)c2)c1` (centres undefined) it is -12%. The figure for `CCS(=O)(=O)N1CCN(C(=O)c2ccc(Cn3cc(Br)cn3)cc2)CC1` is -6.35%.

Regarding `Cc1cccc(OCc2ccc(C(=O)N3N=CCC3(O)C(F)(F)F)o2)c1` (centres undefined), the cytotoxicity at 70.5 h came out at 9.08%. With `Cn1nc(C(=O)N2CCOCC2)cc1C(=O)Nc1ncc(Cl)cc1Cl`, the cytotoxicity at 70.5 h worked out at 14.9%.

Consider `FC(F)(F)c1cc(-c2cccs2)nc(N2CCN3CCCC3C2)n1` (centres undefined), for which the cytotoxicity at 70.5 h was -13.6%. The figure for `Cc1n[nH]c(C)c1S(=O)(=O)N(C)Cc1nn(C)c(Cl)c1Cl` is 22.3%. The figure for `Cc1nn(C)c(C)c1CN(C)S(=O)(=O)c1c(C)n[nH]c1C` is -5.08%; for `CCN(Cc1c(C)nn(CC)c1C)S(=O)(=O)c1cn(C)nc1C` it is -2.98%; for `CCN(Cc1c(C)nn(CC)c1C)S(=O)(=O)c1cnn(C)c1C` it is 14.5%. The figure for `CCN(Cc1c(C)nn(CC)c1C)S(=O)(=O)c1cnn(C)c1` is -6%; for `Cn1ncc(C(=O)O)c1C(=O)Nc1nc2ccccc2s1` it is 14.7%. As for `CCOc1ccc2nc(NC(=O)c3c(C(=O)O)cnn3C)sc2c1`, the cytotoxicity at 70.5 h is -14.2%. The figure for `Cn1ncc(C(=O)O)c1C(=O)Nc1nc2ccc(Br)cc2s1` is 14.8%; for `COC(=O)c1cc(C2CC2)nc2c(C#N)cnn12` it is 25%. The figure for `CCn1ccc(-c2cc(C(=O)O)n3nc(C)c(Cl)c3n2)n1` is -9.11%; for `CCC(CCNC(=O)c1cc(C2CC2)nc2c1cnn2C)n1cccn1` (centres undefined) it is -19.4%; for `CCC(=O)NCCNC(=O)c1nn(C)c(C)c1Cl` it is -11.9%. For the compound `CCn1cc(-c2cc(C(F)(F)F)nc(NC3CCCC3)n2)c(C)n1`, the cytotoxicity at 70.5 h is -6.79%. The figure for `CCOC(=O)CNC(=O)c1cc(-c2ccccc2)nc2ncnn12` is 1.18%; for `N#Cc1cn[nH]c1NCc1cc(Cl)cc(Cl)c1O` it is 17.4%. The figure for `Cc1cnc(N2CCC3(CC(=O)N(Cc4csc(C)n4)C3)C2)nc1` (centres undefined) is -11.1%; for `Cc1occc1C(=O)N1CCOCC2(CCN(C3CCOCC3)C2)C1` (centres undefined) it is -19.7%; for `O=C(N1CCOCC1)[C@@]12CCO[C@@H]1CCN(C1CCCCC1)C2` it is 47.3%. The figure for `Cc1cccc(CN2CCC3(CCCN(C(=O)N4CCCC4)C3)C2=O)n1` (centres undefined) is 40%; for `CC(=O)NCC(=O)N1CCn2cc(CN(C)Cc3ccco3)nc2C1` it is 2.22%; for `Cc1nnc(N2C[C@H]3OCC[C@H]3[C@H](C(=O)NCC3CC3)C2)s1` it is 1.29%. As for `O=C([C@@H]1C[C@@H]2CCN(Cc3ccccn3)C[C@H]2O1)N1CCCO1`, the cytotoxicity at 70.5 h came to 2.74%. The figure for `Cc1ncsc1CN1CC[C@H]2OCC[C@@]2(C(=O)NC2CC2)C1` is -2.8%; for `O=C(c1ccccc1)N1C[C@H]2CCC[C@@]2(COCc2ccncc2)C1` it is 0.753%. For `O=C(c1ccccc1F)N1C[C@H]2CCC[C@@]2(COCc2ccncc2)C1`, the cytotoxicity at 70.5 h is -0.88%.

Regarding `O=C(C1=CCCC1)N1C[C@H]2CCC[C@@]2(COCc2ccncc2)C1`, the cytotoxicity at 70.5 h came out at 3.16%. Regarding `O=C(NC1COC2(CCN(CC3CCC3)CC2)C1)c1ccccn1` (centres undefined), the cytotoxicity at 70.5 h worked out at 1.22%. For `Cn1cnc2c1C(COCC1CC1)CN(C(=O)c1cscn1)C2` (centres undefined), the cytotoxicity at 70.5 h was -5.14%. In the case of `Cc1ccc(C(=O)N2C[C@@H]3[C@@H](C2)OCC(=O)N3Cc2cccnc2)o1`, the cytotoxicity at 70.5 h is -2.11%. The figure for `O=C(c1ccoc1)N1C[C@@H]2[C@@H](C1)OCC(=O)N2Cc1cccnc1` is -3.91%; for `CS(=O)(=O)N1C[C@@H](Oc2ccccn2)[C@H]2OCCC[C@H]21` it is -2.17%; for `CCS(=O)(=O)N1C[C@@H](Oc2ccccn2)[C@H]2OCCC[C@H]21` it is 25.1%. The figure for `O=C1COC2(CCN(Cc3nccs3)CC2)CN1CC1CC1` is 6.87%; for `Cn1cccc1CN1CCC2(CC1)CCN(C(=O)c1cnccn1)CC2` it is 10.8%; for `c1cncc(OCc2noc3c2CN(Cc2cccs2)CC3)c1` it is -24.1%.

With `CCN(CC)CCN1CC[C@H]2OCC[C@@]2(C(=O)N2CCOCC2)C1`, the cytotoxicity at 70.5 h is -14.8%.

Regarding `Cc1ccc(CN2CCOC3(COCCN(C(C)C)C3)C2)s1` (centres undefined), the cytotoxicity at 70.5 h was 18.3%. The figure for `c1cc(CNCC2OCCc3cn(CC4CC4)nc32)cs1` (centres undefined) is -4.34%.

With `Cc1ncsc1CN1Cc2cnn(C)c2C(COCC2CC2)C1` (centres undefined), the cytotoxicity at 70.5 h was -1.88%. The figure for `CN1CC(=O)N(c2cccc(F)c2)CC12CCN(Cc1ccncc1)C2` (centres undefined) is 9.43%.
